Test results from patent US8252912B2, “Transcriptional repression of sodium-iodide symporter in thyroid carcinoma” (University of Kentucky Research Foundation, priority 2007, dated 2012).

What was measured:
hNIS mRNA in KAK-1 cells = assay: qRT-PCR assay of hNIS mRNA levels after treatments in KAK-1 cells; assay type: cell-based, human; conditions: for Stimulation of hNIS mRNA transcription (in words): qRT-PCR; for Relative hNIS mRNA level: relative to control = 1 (4 copies/10^9 18s RNA), azaC 0.5 μM, NaB 1 mM, CHX 10 μg/ml, 3-AB 7.5 mM, PJ34 30 μmole/liter
Description: The basal media and supplements were all from GIBCO/Invitrogen Corporation, Grand Island, N.Y. All thyroid cell lines were grown in phenol red-free RPMI 1640 (GIBCO) with 10% FBS, 100 nmol/L sodium selenite, and 0.1 nmol/L bovine TSH (Sigma) at 37° C. in 5% CO2. KAK-1 cells were also cultured in high-glucose, phenol red-free RPMI 1640 supplemented with 10% FBS, 100 nM sodium selenite, 5 pIU/ml human TSH, 0.1 mM non-essential amino acids, 1 mM sodium pyruvate at 37° C. in 5% CO2. Cell culture media was replenished every 2 days. All chemical reagents were obtained from Sigma Chemical Company (St. Louis, Mo.). In addition, PJ34 was obtained from CalBiochem/EMD Biosciences, Inc. (La Jolla, Calif.) and used at 30 μmole/liter. Cycloheximide (CHX), 3-aminobenzamide (3-AB), 5-azacytidine (azaC), and sodium butyrate (NaB) were from Sigma-Aldrich Chemical Company (St. Louis, Mo.) and used at 10 μg/ml, 7.5 mM, 0.5 μM, 1 mM respectively.
Total RNA was isolated using TRIzol reagent (Invitrogen Corp., Carlsbad, Calif.), genomic DNA contamination removed using DNA-free kit (Ambion Inc., Austin, Tex.), and cDNA synthesized from 2 μg total RNA using Advantage RT-for-PCR kit (BD Biosciences Clontech, Palo Alto, Calif.) with random hexamer primers. TaqMan Universal PCR Master Mix (Applied Biosystems, Foster City, Calif.) and Assay-on-Demand Gene Expression Products (Hs00166567_m1 for hNIS mRNA and Hs999999-1_s1 for 18sRNA, respectively; Applied Biosystems) were used for RNA quantitation. The hNIS fragment (1446-1865, +1 is translation initiation codon “A”) was PCR amplified using NIS-F (5′-ctgcgtggctctctcagtc-3′ SEQ ID NO:6) and NIS-R (5′-ccctccagctccttctgc-3′ SEQ ID NO:7), followed by ligation into pCR2.1 vector (Invitrogen). The same procedure was followed using 18s-F (5′-atggtgaccacgggtgacg-3′ SEQ ID NO:8) and 18s-R (5′-[…]-3′ SEQ ID NO:9) for 18s qPCR standard. DNA preparations of these two plasmids were quantitated, diluted and used as quantitation standards in qPCR measurements.
The qRT-PCR assay was used to measure hNIS mRNA levels after different treatments in KAK-1 cells.

[1] = tested on: human NIS promoter region (Luc-1/pGL3-basic) in KAK-1 cells; assay: Transient transfection luciferase reporter assay, Luc-1/pGL3-basic (hNIS promoter -1667 to -348 bp) in KAK-1 cells, protein synthesis inhibitors; assay type: cell-based; conditions: 2 days, Anisomycin at 0.4, 1 μg/ml, Emetine at 1, 2 μg/ml, Puromycin up to highest concentration used (1 μg/ml)
Description: The pGL3-basic plasmid, together with phRG-B plasmid (as transfection efficiency control) and pUC-18 (as carrier) were transiently transfected into KAK-1 cells cultured under basal conditions supplemented with 0.01% DMSO (as solvent control), Anisomycin (0.1, 0.4, 1 μg/ml), Emetine (0.5, 1, 2 μg/ml) and Puromycin (0.1, 0.4, 1 μg/ml) respectively for 2 days. The cells were then lysed and firefly luciferase activity and Renilla luciferase activity were quantitated using a luminometer (FIG. 3).
Luc-1/pGL3-basic reporter construct (Luc-1) was prepared containing the promoter region of the human sodium/iodide symporter gene (see Venkataraman et al. 1998 Thyroid 8:63-69 and U.S. Pat. No. 6,015,376; Genebank Accession Number: AF059566) from −1667 to −348 bp (FIG. 2) inserted into pGL3-basic luciferase vector at KpnI and HindIII site upstream of the luciferase coding sequence. The Luc-1/pGL3-basic construct, together with phRG-B plasmid (as transfection efficiency control) and pUC-18 (as carrier) were transiently transfected into KAK-1 cells cultured under basal conditions supplemented with 0.01% DMSO (as solvent control), Anisomycin (0.1, 0.4, 1 μg/ml), Emetine (0.5, 1, 2 μg/ml) and Puromycin (0.1, 0.4, 1 μg/ml) respectively for 2 days. The cells were then lysed and firefly luciferase activity and Renilla luciferase activity were quantitated using luminometer (FIG. 4).

[2] = tested on: hNIS promoter in KAK-1 cells; assay: Luciferase reporter assay with pGL3-basic, F4-pGL3-basic and F4Δ-pGL3-basic constructs in KAK-1 cells, PJ34 treatment; assay type: cell-based, human; conditions: PJ34 at 30 μM for 2 days, pGL3-basic, F4-pGL3-basic, F4Δ-pGL3-basic, p<0.05, t-test
Description: For the transient transfection assays to monitor the effects of PJ34, PJ34 was administered at 30 μM one hour before DNA transfection mixtures were added to the KAK-1 cultures. Twenty-four hours later, transfection mixtures were replaced with fresh media containing PJ34. Luciferase and Rennilar activities were determined 24 hr later. Luciferase activity was normalized to Rennilar activity to account for the variations in transfection efficiency. Triplicate transfections were performed and data were presented as mean±SD.
PJ34 is a potent inhibitor for PARP-1. Its effect on hNIS transcription was determined using luciferase reporter assay with pGL3-basic, F4-pGL3-basic (containing hNIS promoter from −1252 to −348 bp) and F4Δ-pGL3-basic constructs (the same as F4-pGL3-basic but with deletion of sequence from −667 to −588 bp, encompassing R—NRBS).

[3] = tested on: factors in KAK-1 nuclear extract binding to NRBS (Probe A); assay: EMSA with radiolabeled Probe A and nuclear extract from treated KAK-1 cells; assay type: cell-based, human; conditions: nuclear extract from KAK-1 cells treated with azaC 0.5 μM, sodium butyrate 1 mM, CHX 10 μg/ml or combinations
Description: Electrophoretic mobility shift assay was performed using radio-labeled NRBS (−684 to −565) oligonucleotides as a probe and nuclear extracts from KAK-1 cells cultured under basal conditions (not expressing hNIS mRNA), as well as with azaC/NaB and azaC/CHX treatments (shown in FIG. 8 on far left).

[4] = tested on: factor(s) in KAK-1 nuclear extract binding to Probe A (NIS-repressor); assay: EMSA competition of cold double-stranded oligonucleotides against radiolabeled Probe A with KAK-1 nuclear extract; design: species or system human; conditions: excess (60×) cold competitor
Description: Nuclear extracts were prepared using the NucBuster Protein Extraction kit from Novagen/EMD Biosciences, Inc. (La Jolla, Calif.) following its instructions. The radioactive EMSA probes were end-labeled using T4 polynucleotide kinase in the presence of γ-P^32-ATP (GE Healthcare Bio-Sciences Corp., Piscataway, N.J.), followed by removal of the free radioactive ATP with the QIAquick Nucleotide Removal Kit from Qiagen (Valencia, Calif.). EMSA reaction was performed using the EMSA Accessory Kit (Novagen) following its instructions. Briefly, 1 μL 10 mM DTT, 5 μL 4×EMSA buffer, 1 μL Salmon sperm DNA and 1 μL poly dI:dC were mixed with 3 μL nuclear extracts, 1 μL radioactive EMSA probe and water to make up to 18 μL. In some reactions, antibodies or cold competitive probes were added. The mixtures were incubated on ice for 30 min, Then 2 μL loading dye were added to each reaction tubes, and the samples were loaded onto 7.5% PAGE/0.5×TBE, and run overnight. The gel was dried, exposed to X-ray films that were developed 2-3 days later. The competitive EMSA probes were prepared by annealing the sense and anti-sense single strand synthetic oligos respectively, which are listed in Table 2.

`NC(=O)c1cccc(N)c1` [3-AB, 3-aminobenzamide] was tested, and the “Stimulation of hNIS mRNA transcription (in words)” value (hNIS mRNA in KAK-1 cells) was “not effective in stimulating hNIS mRNA transcription” and the “Relative hNIS mRNA level” value (hNIS mRNA in KAK-1 cells) was 1.

With `COc1ccc(C[C@H]2NC[C@H](O)[C@H]2OC(C)=O)cc1` [Anisomycin] the “Normalized luciferase activity driven by human NIS promoter region (Luc-1/pGL3-basic), compared with pGL3-basic vector” value [1] was “dramatically stimulated the normalized luciferase activity”.

For `C[C@@H]1C[C@@H]([C@H](O)CC2CC(=O)NC(=O)C2)C(=O)[C@@H](C)C1` [CHX, Cycloheximide], the “Relative hNIS mRNA level” value (hNIS mRNA in KAK-1 cells) was 4.

In the case of `CC[C@H]1CN2CCc3cc(OC)c(OC)cc3[C@@H]2C[C@@H]1C[C@H]1NCCc2cc(OC)c(OC)cc21` [Emetine], the “Normalized luciferase activity driven by human NIS promoter region (Luc-1/pGL3-basic), compared with pGL3-basic vector” value [1] is reported as “dramatically stimulated the normalized luciferase activity”.

In the case of `CN(C)CC(=O)Nc1ccc2[nH]c(=O)c3ccccc3c2c1` [PJ34], the “Stimulation of hNIS mRNA transcription (in words)” value (hNIS mRNA in KAK-1 cells) is reported as “stimulate hNIS mRNA more than CHX alone”, the “Relative hNIS mRNA level” value (hNIS mRNA in KAK-1 cells) is reported as 26 and the “Normalized luciferase activity with versus without PJ34 treatment” value [2] is reported as “stimulated luciferase activity from all the constructs”.

In the case of `COc1ccc(C[C@H](N)C(=O)N[C@H]2[C@@H](O)[C@H](n3cnc4c(N(C)C)ncnc43)O[C@@H]2CO)cc1` [Puromycin], the “Normalized luciferase activity driven by human NIS promoter region (Luc-1/pGL3-basic), compared with pGL3-basic vector” value [1] is reported as “did not stimulate the luciferase activity much”.

For `Nc1ncn([C@@H]2O[C@H](CO)[C@@H](O)[C@H]2O)c(=O)n1` [azaC, 5-azacytidine], the “Effect of cell treatment on EMSA gel shift pattern (Probe A)” value [3] was “gel shift pattern remained the same” and the “Relative hNIS mRNA level” value (hNIS mRNA in KAK-1 cells) was 5.

For “Comp-1.1: double-stranded competitive EMSA probe, −653 to −630 of hNIS promoter, Seq ID No:77/78 (chain 1 GCCCTTTTTGAGCCTCAATTTCCC; chain 2 GGGAAATTGAGGCTCAAAAAGGGC; chemistry not given here)”, the “Competition against radiolabeled Probe A in EMSA (gel-shift signal)” value (shortened to “Competition … (gel-shift signal)”) [4] was “fail to compete against the radiolabeled Probe A”.

For “Comp-1.2: double-stranded competitive EMSA probe, −648 to −625 of hNIS promoter, Seq ID No:79/80 (chain 1 TTTTGAGCCTCAATTTCCCCACCT; chain 2 AGGTGGGGAAATTGAGGCTCAAAA; chemistry not given here)”, the “Competition … (gel-shift signal)” value [4] was “effectively competed against the radiolabeled Probe A”.

For “Comp-1.3: double-stranded competitive EMSA probe, −643 to −620 of hNIS promoter, Seq ID No:81/82 (chain 1 AGCCTCAATTTCCCCACCTGTCAA; chain 2 TTGACAGGTGGGGAAATTGAGGCT; chemistry not given here)”, the “Competition … (gel-shift signal)” value [4] was “effectively competed against the radiolabeled Probe A”.

For “Comp-1.4: double-stranded competitive EMSA probe, −638 to −615 of hNIS promoter, Seq ID No:83/84 (chain 1 CAATTTCCCCACCTGTCAACAGCA; chain 2 TGCTGTTGACAGGTGGGGGAAATTG; chemistry not given here)”, the “Competition … (gel-shift signal)” value [4] was “fail to compete against the radiolabeled Probe A”.

B1: Comp-2: double-stranded competitive EMSA probe, −633 to −595 of hNIS promoter, Seq ID No:85/86 (nucleic acid)
chain 1: TCCCCACCTGTCAACAGCAGACAGTGACAGCTGTGATCA
chain 2: TGATCACAGCTGTCACTGTCTGCTGTTGACAGGTGGGGA
modifications: chemistry not given here
With B1 the “Competition … (gel-shift signal)” value [4] was “fail to compete against the radiolabeled Probe A”.

B2: Comp-0.9: double-stranded competitive EMSA probe, −660 to −627 of hNIS promoter, Seq ID No:73/74 (nucleic acid)
chain 1: GTGACATGCCCTTTTTGAGCCTCAATTTCCCCAC
chain 2: GTGGGGAAATTGAGGCTCAAAAAGGGCATGTCAC
modifications: chemistry not given here
With B2 the “Competition … (gel-shift signal)” value [4] was “fail to compete against the radiolabeled Probe A”.

B3: Comp-1: double-stranded competitive EMSA probe, −653 to −615 of hNIS promoter, Seq ID No:75/76 (nucleic acid)
chain 1: GCCCTTTTTGAGCCTCAATTTCCCCACCTGTCAACAGCA
chain 2: TGCTGTTGACAGGTGGGGAAATTGAGGCTCAAAAAGGGC
modifications: chemistry not given here
With B3 the “Competition … (gel-shift signal)” value [4] was “completely erased the characteristic gel-shift signal”.
